Reference: ChEMBL document CHEMBL1154360, “Cytotoxic and PTP1B inhibitory activities from Erythrina abyssinica” (Bioorg Med Chem Lett, 2009)

Assays:
[1] = tested on: MCF7; assay: Cytotoxicity against human adriamycin- resistant MCF7 cells by WST-1 assay; format: functional, cell-based
[2] = tested on: MCF7; assay: Cytotoxicity against human MCF7 cells by WST-1 assay; format: functional, cell-based
[3] = tested on: MCF7; assay: Cytotoxicity against human tamoxifen-resistant MCF7 cells by WST-1 assay; format: functional, cell-based
[4] = tested on: MDA-MB-231; assay: Cytotoxicity against human MDA-MB-231 cells by WST-1 assay; format: functional, cell-based
[5] = target: T1, Tyrosine-protein phosphatase non-receptor type 1 (Homo sapiens, UniProt P18031); assay: Inhibition of human recombinant PTP1B assessed as p-nitrophenol production
T1 sequence (P18031 whole entry): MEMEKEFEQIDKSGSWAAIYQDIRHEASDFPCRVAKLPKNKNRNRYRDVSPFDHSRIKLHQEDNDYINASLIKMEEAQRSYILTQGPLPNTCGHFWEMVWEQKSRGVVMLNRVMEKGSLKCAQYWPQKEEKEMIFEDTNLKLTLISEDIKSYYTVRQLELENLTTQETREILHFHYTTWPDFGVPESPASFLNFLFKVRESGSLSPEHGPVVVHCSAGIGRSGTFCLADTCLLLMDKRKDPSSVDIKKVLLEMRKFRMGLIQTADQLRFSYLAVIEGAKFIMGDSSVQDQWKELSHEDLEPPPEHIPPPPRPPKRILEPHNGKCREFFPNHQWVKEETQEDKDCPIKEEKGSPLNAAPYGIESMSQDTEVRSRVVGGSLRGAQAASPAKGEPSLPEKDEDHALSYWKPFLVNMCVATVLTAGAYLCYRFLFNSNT

IC50 [5] [µM]	Structure (SMILES)	IC50 [1] [µM]	IC50 [2] [µM]	IC50 [3] [µM]	IC50 [4] [µM]
4.2	CC(C)=CCc1c(O)ccc2c1OC[C@H]1c3ccc4c(c3O[C@@H]21)C=CC(C)(C)O4 [ERYBREADIN B]	5.6	11.8	6.2	7.7
19.5	CC(C)=CCc1c(O)ccc2c1OC[C@H]1c3ccc(O)cc3O[C@@H]21	> 30	> 30	> 30	> 30
7.3	CC(C)=CCc1cc2c(cc1O)O[C@H]1c3ccc(O)c(CC=C(C)C)c3OC[C@@H]21 [ERYBREADIN C]	20.1	14.8	9.1	22.7
19.3	COc1ccc2c(c1CC=C(C)C)O[C@H]1c3ccc(O)cc3OC[C@@]21OC [ERYTHRIBYSSIN A]	16.1	19.4	12	28
> 30	O=Cc1c(O)ccc2c1O[C@H]1c3ccc(O)cc3OC[C@@H]21 [ERYTHRIBYSSIN B]	> 30	> 30	> 30	> 30
6.4	CC(C)=CCc1c(O)ccc2c1OC[C@H]1c3ccc4c(c3O[C@@H]21)OC(C)(C)C=C4 [ERYBREADIN D]	12.7	–	7.8	–
7.6	CC1(C)C=Cc2cc3c(cc2O1)OC[C@H]1c2ccc(O)cc2O[C@@H]31 [NEORAUTENOL]	> 30	> 30	> 30	> 30

More lines, now with the values behind:

Structure (SMILES)	IC50 [5] [µM]	IC50 [1] [µM]	IC50 [2] [µM]	IC50 [3] [µM]	IC50 [4] [µM]
CC(C)=CCc1cc2c(cc1O)OC[C@@]1(O)c3ccc4c(c3O[C@@H]21)C=CC(C)(C)O4 [ERYSUBIN E]	8.8	> 30	> 30	> 30	> 30
CC(C)=CCc1cc2c(cc1O)O[C@H]1c3ccc(O)cc3OC[C@@H]21 [SOPHORAPTEROCARPAN A]	> 30	> 30	> 30	> 30	> 30
CCCCCCCCCCCCCCCC(=O)C1=C(O)[C@@H](CO)OC1=O	–	> 30	> 30	> 30	> 30
C[C@H]1[C@H](C)CC[C@]2(C(=O)O)CC[C@]3(C)C(=CC[C@@H]4[C@@]5(C)CC[C@H](O)C(C)(C)[C@@H]5CC[C@]43C)[C@H]12 [URSOLIC ACID]	–	> 30	> 30	> 30	> 30
COc1cc2c(cc1O)O[C@H]1c3cc(CC=C(C)C)c(O)cc3OC[C@@H]21 [ERYVARIN K]	> 30	> 30	> 30	> 30	> 30
CC(C)=CCc1c(O)ccc2c1O[C@H]1c3ccc(O)cc3OC[C@@H]21 [PHASEOLLIDIN]	> 30	> 30	> 30	> 30	> 30
COc1ccc2c(c1CC=C(C)C)O[C@H]1c3cc(CC=C(C)C)c(O)cc3OC[C@@]21O [ERYSTAGALLIN A]	20.8	> 30	> 30	> 30	> 30
CC/C(=C(\c1ccccc1)c1ccc(OCCN(C)C)cc1)c1ccccc1 [TAMOXIFEN]	–	–	11.4	–	–
CC(C)=CCc1cc2c(cc1O)OC[C@H]1c3ccc(O)c(CC=C(C)C)c3O[C@@H]21 [ERYBRAEDIN C]	> 30	> 30	> 30	> 30	> 30
COc1cc2c(cc1O)O[C@H]1c3cc(CC=C(C)C)c(OC)cc3OC[C@@H]21 [ERYTHRIBYSSIN C]	> 30	> 30	> 30	> 30	> 30
CC(C)=CCc1cc2c(cc1O)OC[C@H]1c3ccc4c(c3O[C@@H]21)C=CC(C)(C)O4 [FOLITENOL]	7.8	10.8	–	18.8	16.7
